# Reference: US9682024B2, “Protection against sunburn and skin problems with topical and orally-ingested dosages of zeaxanthin” (ZeaVision, LLC, priority 2002, dated 2017)
# Key:
# [1] = test system: retinas; settings: in vivo; cited from earlier work
# [2] = test system: human fibroblast cells; settings: Eichler et al 2002; cited from earlier work
# [3] = test system: skin diseases such as porphyria; settings: cited from earlier work
# [4] = test system: lung cancer; settings: smokers; daily ingestion of 30 to 60 mg/day; cited from earlier work
# [5] = test system: skin cells in culture; settings: quoted from Biesalski et al 2001; cited from earlier work
# [6] = Tolerability and excretion of high oral zeaxanthin dosages; type: in vivo, human
# [7] = in vivo
# Excerpt: One aspect of that project involved testing both zeaxanthin and lutein, in various dosages and formulations, to evaluate the increases that would result in circulating blood, and in retinal tissue, in human volunteers. A set of tests on human volunteers was developed with assistance by outside experts with skill and experience in that type of planning, and proper steps were taken to obtain informed consent from all volunteers.
# [8] = test system: skin; experiment: Darkening of skin color after oral zeaxanthin; type: in vivo, human
# Experimental: (§1) That dosage was in the range of about 60 mg of zeaxanthin per day for roughly 2 weeks, then about 80 mg/day for a week).
# (§2) One coworker began taking 10 mg/day during April, and increased to 20 mg/day during May, and then increased to 40 mg/day during June. […] In July, they increased their dosage to 80 mg/day during several week-long periods, to see what effect it would have on skin color, and on sunburn resistance.
# (§3) After seeing and hearing the highly positive results obtained by the two people described in Examples 1 and 2, another coworker decided to also begin taking zeaxanthin at 40 mg/day, starting a couple of weeks before going on a summer vacation with their family.
# (§4) A third coworker began taking 10 mg of zeaxanthin per day. Although they were aware of the above-described anecdotal reports of sunburn protection being provided by higher dosages, they decided to not alter their dosage, and they stayed at a dosage of 10 mg/day.
# Promptly after that baseline determination, this person began ingesting 30 mg of zeaxanthin per day (10 mg with […] morning meal, and 20 mg with […] evening meal, using the 10 mg capsules available from ZeaVision LLC). During that time, […] continued to take the same anti-oxidant regimen as before. […] […] then re-tested […], using the same UV lamp and procedures as before.
# [9] = test system: skin; experiment: Minimal erythemal dosage (MED) test with medical-grade UV lamp after oral zeaxanthin; type: in vivo, human
# [10] = test system: skin; experiment: Sunburn protection during prolonged exposure to direct sunlight after oral zeaxanthin; type: in vivo, human
# Experimental: as §1
# While in the Caribbean, they intentionally exposed themself to direct sunlight at a substantially higher intensity than they normally received in their home state of Missouri, for sufficient periods of time to give them an “onset” type of sunburn, which would convert to a suntan over a span of several days if they took proper care of their skin and put lotion on it. […] Instead, any mild redness they experienced in the evening, at the end of a day with a prolonged session in the sun, was not accompanied by sensations of pain, burning, tightness, or dryness in the skin, and it converted to a normal (or slightly reddish, but not uncomfortable) suntan within less than 24 hours.
# as §2
# On a couple of weekend days during July, and during a family vacation in early August, they deliberately subjected themself to prolonged sun exposure without any sun-blocking lotion, including sessions that normally would have caused them substantial or severe sunburns accompanied by serious discomfort. Instead of receiving those types of sunburns, by the evening of a day like that, they could detect some redness in their skin color, and a heightened condition of skin sensitivity; however, they felt no serious discomfort or sense of “radiating heat” in their skin, and no interference with their ability to sleep comfortably; in addition, by the following day, the redness appeared to be entirely gone.
# as §3, §4
# [11] = cited from earlier work
# [12] = reported to US-FDA by Roche Vitamins Inc.; cited from earlier work
# [13] = according to Lorenz, US 6,433,025; cited from earlier work
smiles,measurement,setting,value
CC1=C(/C=C/C(C)=C/C=C/C(C)=C/C=C/C=C(C)/C=C/C=C(C)/C=C/C2=C(C)C(=O)CCC2(C)C)C(C)(C)CCC1=O [canthaxanthin],retinal side effect,[1],canthaxanthin crystals were being formed and deposited in the retinas
CC1=C(/C=C/C(C)=C/C=C/C(C)=C/C=C/C=C(C)/C=C/C=C(C)/C=C/C2=C(C)CCCC2(C)C)C(C)(C)CCC1 [β-carotene],amount of carotenoid needed for optimal protection,[2],0.40 nmol/mg protein
same,effective dosage level to treat skin diseases,[3],180 mg/day
same,elevation of risk of lung cancer,[4],~30%
same,oxidant properties in cultured skin cells,[5],unexpected prooxidant properties
CC1=C(/C=C/C(C)=C/C=C/C(C)=C/C=C/C=C(C)/C=C/C=C(C)/C=C/C2=C(C)C[C@@H](O)CC2(C)C)C(C)(C)C[C@H](O)C1 [zeaxanthin],fecal coloration,"[6]; high dosages, humans",changes in fecal coloration
same,adverse effects,"[6]; second inventor, 80 mg/day",no adverse effects
same,dosage response in circulating blood concentrations,[7],valid dosage response
same,skin color change,"[8]; Example 1, about 60 mg/day roughly 2 weeks, then about 80 mg/day for a week",noticeable change in the color and tint of their skin
same,skin color change,"[8]; Example 2 coworker, 40 mg/day",slight but noticeable darkening of their skin
same,skin color change,"[8]; Example 2 coworker, 80 mg/day during several week-long periods",noticeably darker
same,skin color change,"[8]; Example 3 coworker, 40 mg/day for a couple of weeks",mildly darker and more tanned shade
same,skin color change,"[8]; Example 4 coworker, 10 mg/day",could not detect any change in their skin color
same,skin coloration,[8]; all volunteers who ingested 30 mg or more per day,darkened coloration
same,skin color change,"[8]; first inventor, 30 mg/day for three weeks",slightly perceptible color change in the palms of the hands
same,"MED increase, post-ingestion compared to pre-ingestion","[9]; each volunteer of the UV lamp tests, 30 mg/day or higher",> 30%
same,MED level relative to baseline value,"[9]; first inventor, 60 mg/day for another 3 weeks, baseline 7",more than double
same,post-ingestion MED (minimal erythemal dosage),"[9]; first inventor, oral 30 mg/day for 3 weeks, baseline 7.0 minutes, on top of anti-oxidant regimen",10.5 min
same,post-ingestion MED (minimal erythemal dosage),"[9]; first inventor, then 60 mg/day for another 3 weeks, baseline 7.0 minutes",16 min
same,MED value relative to baseline,"[9]; second volunteer, 60 mg/day for 20 days",doubled
same,post-ingestion MED (minimal erythemal dosage),"[9]; second volunteer, 60 mg/day for 20 days, baseline 5.0 minutes",10 min
same,redness of longest-duration UV-exposed skin patches,"[9]; two subjects after ingesting zeaxanthin, UV up to >20 minutes and up to 15 minutes",plateau effect
same,peeling or flaking of clearly UV-burned spots,"[9]; two subjects, post-ingestion tests, after several days",did not begin peeling or flaking
same,time for mild redness to convert to normal suntan,"[10]; Example 1, about 60 then 80 mg/day",less than 24 hours
same,sunburn after prolonged direct sunlight,"[10]; Example 1, about 60 then 80 mg/day, Caribbean",did not get sunburned in the normal manner
same,sunburn after prolonged sun exposure without sun-blocking lotion,"[10]; Example 2 coworker, up to 80 mg/day",excellent protection against sunburn
same,sunburn after prolonged sun exposure with no protective lotion,"[10]; Example 3 coworker, 40 mg/day",had not suffered any sunburns
same,sunburn after prolonged session of exposure to the sun,"[10]; Example 4 coworker, 10 mg/day",suffered a noticeable sunburn
same,solubility in water,[11],not soluble in water
same,No Adverse Effect Level (NOAEL),[12],1200 mg/day
CC1=C(/C=C/C(C)=C/C=C/C(C)=C/C=C/C=C(C)/C=C/C=C(C)/C=C/C2=C(C)C(=O)[C@@H](O)CC2(C)C)C(C)(C)C[C@H](O)C1=O [astaxanthin],potency as anti-oxidant protective agent versus other carotenoids,[13],roughly ten times the potency
CC1=C[C@H](O)CC(C)(C)[C@H]1/C=C/C(C)=C/C=C/C(C)=C/C=C/C=C(C)/C=C/C=C(C)/C=C/C1=C(C)C[C@@H](O)CC1(C)C [lutein],amount of carotenoid needed for optimal protection,[2],0.30 nmol/mg protein
CC(C)=CCC/C(C)=C/C=C/C(C)=C/C=C/C(C)=C/C=C/C=C(C)/C=C/C=C(C)/C=C/C=C(\C)CCC=C(C)C [lycopene],amount of carotenoid needed for optimal protection,[2],0.05 nmol/mg protein
